# Assay results as given in US12128064B1, “Polysilane methacrylic compounds and methods of making them” (Zetagen Therapeutics, Inc., priority 2024, dated 2024).
# Tested on: BT-474 breast cancer cells
# Assay: Toxicity of the Compound (IVa) polymer in BT-474 cultures
# Format: cell-based
# Settings: 24-hours
# Protocol: The small molecule, N-allyl noroxymorphone hydrochloride, was added to Compound IVa (SiH3—[SiH2]n—SiH2—[C5H7O2]n with Ca10(PO4)6(OH)2) at a concentration of 0.4-mg N-allyl noroxymorphone/mg of Compound IVa. Then the MAGE-Polymerization Initiator Solution containing the vinyl monomer vinyl methacrylate was added in a ratio of 2:1. The material—with N-allyl noroxymorphone hydrochloride—was then polymerized and added to cultures of BT-474 breast cancer cells. Cultures were also treated with N-allyl noroxymorphone hydrochloride alone. Control cultures received no treatment.
compound,measurement,value
C=CCN1CC[C@]23c4c5ccc(O)c4O[C@H]2C(=O)CC[C@@]3(O)[C@H]1C5.Cl [N-allyl noroxymorphone hydrochloride],Decrease in cell number relative to Control Cultures,59.7%
